Experimental data reported in patent US6262104A, “Diarylalkenylamine derivatives” (SmithKline Beecham p.l.c., priority 1995, dated 2001).
Counter-ions that a name gives are not always drawn.

Biological target: T1, delta (Mus musculus, UniProt P32300)
T1 construct: Vasa deferentia were obtained from CD-1 mice; from tissue; host or cells: vas deferens of CD-1 mice
Experiment: Mouse vas deferens (MVD) bioassay, delta agonist/antagonist activity
Details: CD-1 mouse vasa deferentia, electrically stimulated, Mg2+-free Krebs buffer, 37° C.
Protocol: The delta agonist/antagonist activity of the compounds of the present invention is determined in the mouse vas deferens (MVD) bioassay as described below.
Vasa deferentia were obtained from CD-1 mice and were suspended in a Mg^2+ - free Krebsa buffer at 37° C. The tissues were electrically stimulated with pulse trains having the following parameters: train duration 50 ms, stimulus duration 2 ms, frequency of stimuli 50 Hz, maximal voltage 60-70 V, train frequency 0.1 Hz. Concentration response curves for each compounds were constructed cumulatively. Linear regression analysis and IC50 concentrations were evaluated according to Talarida and Murray (Manual of Pharmacological Calculations, Springer Verlag NY, 1981).

T1 sequence (P32300 whole entry): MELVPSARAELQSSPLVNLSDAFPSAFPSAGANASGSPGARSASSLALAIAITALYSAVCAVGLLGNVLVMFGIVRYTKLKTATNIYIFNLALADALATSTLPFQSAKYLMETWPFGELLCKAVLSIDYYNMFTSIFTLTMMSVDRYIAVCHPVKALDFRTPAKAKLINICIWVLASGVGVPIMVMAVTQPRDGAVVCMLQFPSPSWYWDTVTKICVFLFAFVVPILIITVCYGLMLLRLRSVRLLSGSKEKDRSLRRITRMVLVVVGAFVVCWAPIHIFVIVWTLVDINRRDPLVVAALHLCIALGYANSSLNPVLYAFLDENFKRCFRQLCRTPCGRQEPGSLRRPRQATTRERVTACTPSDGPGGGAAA

**Q.** CCN(CC)C(=O)c1ccc(/C(=C\CN2CCCC2)c2cccc(O)c2)cc1 [Example 2, (E)-N,N-Diethyl-4-[[1-(3-hydroxyphenyl)-3-pyrrolidin-1-yl]-1-propenyl]benzamide citrate] was tested. Which IC50 did it give?
**A.** 30 nM
